Assay results from article PMC4601772, “Investigating Apoptozole as a Chemical Probe for HSP70 Inhibition” (PLoS ONE, 2015).
Blank lines part the entries; values can stand above or below the compound they belong to.

Assays:
[1] = target: T1, human HSP72 (Homo sapiens, UniProt P0DMV8); experiment: Fluorescence polarisation competitive binding with ATP-FAM probe; settings: for IC50: displacement of ATP-FAM (10 nM) from human HSP72, geometric mean of 3; for pIC50: displacement of ATP-FAM from human HSP72, geometric mean ± SEM, 3 measurements
T1 construct: 6xHis (N); human rhinovirus 3C protease cleavage site (N); made in house; host or cells: E. coli BL21-AI
Description: (§1) Unless otherwise stated the aqueous assay buffer contained 50 mM TRIS base pH 7.4, 150 mM NaCl, 6 mM MgCl2, 1 mM DTT, 0.1% (wt/wt) CHAPS. The assay was conducted using 384 Plus F ProxiPlates (PerkinElmer) with a final assay volume of 10 μL. Plates were centrifuged at 1000 rpm for 1 minute prior to incubation and read using an 2103 Envision Multilable Plate Reader. Excitation and emission wavelengths used for green probes were 480 nm and 535 nm, respectively. Excitation and emission wavelengths used for red probes were 620 nm and 688 nm, respectively. Fluorescence polarisation was measured in units of millipolarization (mP). All experiments were performed in triplicate, except for experiments with ATP-Cy5 and apoptozole-Cy5, which were performed in duplicate. Data were plotted and analyzed using GraphPad Prism 6, graphical data represents the geometric mean ± standard error of the mean for a single representative experiment.
Compounds (0.2 μL at 50 x screening concentration in DMSO) were dispensed using an ECHO 550 Liquid Handler (labcyte Inc.). To the corresponding wells was added, 5 μL of probe molecule (20 nM in assay buffer) and 5 μL of protein (two times their final concentration in assay buffer) to give a 50% bound fraction.[30] Tracer controls (10 nM probe molecule only) and bound tracer controls (10 nM probe in the presence of appropriate protein concentration) were included on each assay plate. IC50 determination was performed using non-linear least squares curve fitting (GraphPad Prism 6, log(inhibitor) vs. response—variable slope (four parameters)).

[2] = Dynamic light scattering (aggregation under aqueous conditions); format: physicochemical
Description: Apoptozole and VER-155008 (10 mM in DMSO) were diluted in 1 x PBS buffer with a final DMSO concentration of 2%, ± 0.01% v/v Triton X-100. Measurements were performed using a Protein Solutions DynaPro (Wyatt Technology) at room temperature. Data were acquired and processed by the software Dynamics, version 6.10 and calculation of particle radius performed by the cumulant analysis tool. The detector angle was 90°, the laser power was set to 30% and the integration time was 150 s. Each radius value presents three independent measurements, values are quotes as arithmetic mean ± standard error of the mean.

[3] = target: T2, rat HSP72 (Rattus norvegicus, UniProt P0DMW0); set-up: method as in PMID 18729127; settings: SPR; cited from earlier work
T2 construct: purchased Enzo Life Sciences

[4] = system: HCT-15; set-up: method as in PMID 18729127; settings: cited from earlier work
[5] = system: SK-OV-3; set-up: method as in PMID 18729127; settings: cited from earlier work
[6] = system: A549; set-up: method as in PMID 18729127; settings: cited from earlier work
[7] = target: bovine HSC70; set-up: method as in PMID 18729127; settings: SPR; cited from earlier work
[8] = target: T1, human HSP72; experiment: SPR Procedure A, biotinylated apoptozole 4 on neutravidin chip, human HSP72; format: binding; settings: human HSP72 31–500 nM, control subtracted
Description: (§2) SPR analysis was performed on a Biacore T200 (GE Healthcare) at 25°C at a flow rate of 30 μL/min. The running buffer contained 1 x PBS and was prepared from 10 x concentrated PBS (GE Healthcare) on the day of use. Series S Sensor Chip CM5 was purchased from GE Healthcare, stored at […] and brought to room temperature prior to use.
(§3) The sensor chip was activated by injection of a 1:1 mixture of 500 mM NHS and 200 mM EDC for 420 seconds. Neutravidin (50 μg/mL in 10 mM sodium acetate buffer, pH 5.5) was injected across the chip surface for 60 seconds, followed by injection of 1 mM ethanolamine (pH 8.5) for 420 seconds. Biotinylated-apoptozole 4 (100 μM in 1:1 DMSO/PBS) was injected over the chip surface for 420 seconds. Human and rat HSP72 (500 nM in PBS) were injected at concentrations of 31–500 nM, injection time: 60 seconds, dissociation time: 60 seconds. The control lane was subjected to the conditions described above but derivatization with biotinylated apoptozole 4 was omitted.

[9] = target: T2, rat HSP72; experiment: SPR Procedure A, biotinylated apoptozole 4 on neutravidin chip, rat HSP72; format: binding; settings: rat HSP72 31–500 nM, control subtracted
Description: as §2, §3

[10] = target: T1, human HSP72; experiment: SPR Procedure B, apoptozole derivative 6 bound directly to CM5 chip; format: binding; settings: three immobilisation levels, HSP72 up to 32 μM
Description: as §2
The sensor chip was activated by injection of a 1:1 mixture of 500 mM NHS and 200 mM EDC for 420 seconds. Apoptozole derivative 6 (100 μM in 1:1 DMSO/PBS) was injected over the chip surface, to give immobilization levels of approximately 4000, 8000 and 12000 RU. Ethanolamine (1 mM, pH 8.5) was then injected over the chip surface for 420 seconds. Human HSP72 (32 μM in PBS) was injected at concentrations of 62 nM–32 μM, injection time: 60 seconds, dissociation time: 60 seconds. The control lane was subjected to the conditions described above but derivatization with apoptozole derivative 6 was omitted.

[11] = target: T1, human HSP72; experiment: Fluorescence polarisation KD determination of probes, HSP72; format: binding; settings: for pKD: human HSP72, geometric mean ± SEM, 3 measurements; for Kd: human HSP72 titrated against fixed probe concentration, geometric mean of 3
Description: as §1
(§4) To each well, 5 μL of probe molecule (20 nM in assay buffer) and increasing concentrations of HSP70 protein (5 μL, two-fold dilution series) were added. Fluorescence polarisation values for tracer control wells (10 nM probe in assay buffer only) were subtracted from each data point prior to data analysis. KD determination was performed using non-linear regression analysis (GraphPad Prism 6, one site–specific binding model).

[12] = target: T3, human HSC70 (Homo sapiens, UniProt P11142); experiment: Fluorescence polarisation KD determination of probes, HSC70; format: binding; settings: single determination
T3 construct: purchased Abcam
Description: as §1, §4

[13] = system: HSP70; set-up: method as in PMID 24265689; settings: cited from earlier work
[14] = 10 μM, without Triton X-100, PBS 2% DMSO

T1 sequence (P0DMV8 whole entry): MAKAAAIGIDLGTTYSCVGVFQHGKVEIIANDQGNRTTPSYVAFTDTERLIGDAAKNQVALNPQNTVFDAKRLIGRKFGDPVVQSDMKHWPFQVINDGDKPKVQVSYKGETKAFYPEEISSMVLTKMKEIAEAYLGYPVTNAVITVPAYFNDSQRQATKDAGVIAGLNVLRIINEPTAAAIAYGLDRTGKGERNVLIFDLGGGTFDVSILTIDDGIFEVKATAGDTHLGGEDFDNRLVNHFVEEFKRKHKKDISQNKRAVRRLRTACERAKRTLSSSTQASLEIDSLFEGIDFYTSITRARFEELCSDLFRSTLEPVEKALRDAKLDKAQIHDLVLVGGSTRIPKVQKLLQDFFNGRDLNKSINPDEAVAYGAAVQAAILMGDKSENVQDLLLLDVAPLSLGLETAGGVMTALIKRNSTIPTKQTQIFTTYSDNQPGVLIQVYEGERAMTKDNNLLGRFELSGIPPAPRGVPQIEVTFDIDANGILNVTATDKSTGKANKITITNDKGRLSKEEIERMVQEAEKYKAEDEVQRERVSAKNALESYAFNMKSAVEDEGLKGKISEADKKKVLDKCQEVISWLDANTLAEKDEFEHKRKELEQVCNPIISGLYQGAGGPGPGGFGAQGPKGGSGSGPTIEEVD
T2 sequence (P0DMW0 2-641 limits assumed): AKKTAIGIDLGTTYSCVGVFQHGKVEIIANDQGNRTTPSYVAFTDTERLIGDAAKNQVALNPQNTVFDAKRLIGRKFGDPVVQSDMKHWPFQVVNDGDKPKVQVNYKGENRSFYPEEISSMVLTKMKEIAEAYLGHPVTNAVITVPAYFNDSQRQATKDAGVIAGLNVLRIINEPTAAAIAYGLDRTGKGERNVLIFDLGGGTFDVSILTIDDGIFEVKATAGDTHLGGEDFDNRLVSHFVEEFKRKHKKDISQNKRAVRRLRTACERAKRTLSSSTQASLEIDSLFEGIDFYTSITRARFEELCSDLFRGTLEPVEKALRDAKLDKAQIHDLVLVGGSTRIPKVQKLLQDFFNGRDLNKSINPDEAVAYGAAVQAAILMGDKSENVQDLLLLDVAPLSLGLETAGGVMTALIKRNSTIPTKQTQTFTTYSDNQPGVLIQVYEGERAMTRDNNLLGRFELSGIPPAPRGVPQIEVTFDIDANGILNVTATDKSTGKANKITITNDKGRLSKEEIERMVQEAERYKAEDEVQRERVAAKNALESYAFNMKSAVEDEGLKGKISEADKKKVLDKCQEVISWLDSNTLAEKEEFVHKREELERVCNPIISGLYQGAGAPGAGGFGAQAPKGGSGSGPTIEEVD
T3 sequence (P11142 whole entry): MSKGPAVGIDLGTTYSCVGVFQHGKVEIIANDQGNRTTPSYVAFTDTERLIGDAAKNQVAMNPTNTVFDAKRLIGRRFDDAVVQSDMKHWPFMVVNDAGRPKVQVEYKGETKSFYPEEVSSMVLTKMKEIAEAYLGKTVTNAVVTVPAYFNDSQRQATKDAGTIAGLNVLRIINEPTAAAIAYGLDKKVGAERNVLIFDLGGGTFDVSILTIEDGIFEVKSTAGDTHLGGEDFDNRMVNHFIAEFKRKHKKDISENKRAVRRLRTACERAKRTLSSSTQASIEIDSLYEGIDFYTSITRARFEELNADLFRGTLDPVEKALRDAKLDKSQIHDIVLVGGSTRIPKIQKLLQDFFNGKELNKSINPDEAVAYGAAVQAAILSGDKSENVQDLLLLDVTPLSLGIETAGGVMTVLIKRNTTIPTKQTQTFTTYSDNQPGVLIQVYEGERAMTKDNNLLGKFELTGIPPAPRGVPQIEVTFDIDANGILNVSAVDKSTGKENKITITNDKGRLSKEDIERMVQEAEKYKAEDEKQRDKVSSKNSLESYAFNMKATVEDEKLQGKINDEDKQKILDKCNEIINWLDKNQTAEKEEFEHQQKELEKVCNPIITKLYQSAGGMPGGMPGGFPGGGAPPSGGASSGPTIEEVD

Compound: Nc1ncnc2c1ncn2[C@@H]1O[C@H](COP(=O)(O)OP(=O)(O)O)[C@@H](O)[C@H]1O [ADP]
IC50 [1]: 670 nM
pIC50 [1]: 6.17 ± 0.11

Compound: Nc1ncnc2c1ncn2[C@@H]1O[C@H](COP(=O)(O)OP(=O)(O)OP(=O)(O)O)[C@@H](O)[C@H]1O [ATP]
IC50 [1]: 1200 nM
pIC50 [1]: 5.94 ± 0.05

Compound: N^6-(6-Amino)hexyl-ATP-6-FAM [ATP-FAM]
pKD [11]: 6.50 ± 0.04
Kd [11]: 320 nM
Kd [12]: 970 nM

Compound: pifithrin-μ
Mode of binding to HSP70 [13]: unspecific, detergent-like way

Further lines, with some results ahead:

IC50 [1]: 490 nM
pIC50 [1]: 6.31 ± 0.06
Aggregate formation ([2]; 10 μM): no evidence of aggregate formation
Intensity ([2]; 10 μM, with 0.01% Triton X-100): 318.2 ± 61.3 kcps
Radius ([2]; 10 μM, with 0.01% Triton X-100): 101.1 ± 9.0 nm
Intensity ([2]; 10 μM, without Triton X-100): 63.2 ± 5.8 kcps
Radius [2, 14]: 88.5 ± 8.3 nm
Compound: N#Cc1ccc(COC[C@H]2O[C@@H](n3c(NCc4ccc(Cl)c(Cl)c4)nc4c(N)ncnc43)[C@H](O)[C@@H]2O)cc1 [VER-155008]

Intensity ([2]; 1 μM, without Triton X-100): 132.6 ± 39.7 kcps
Radius ([2]; 1 μM, without Triton X-100): 89.3 ± 5.8 nm
Intensity ([2]; 5 μM, without Triton X-100): 1047.5 ± 183.1 kcps
Radius ([2]; 5 μM, without Triton X-100): 454.4 ± 36.4 nm
Intensity ([2]; 10 μM, with 0.01% Triton X-100): 2350.0 ± 173.1 kcps
Radius ([2]; 10 μM, with 0.01% Triton X-100): 86.5 ± 2.1 nm
Intensity ([2]; 10 μM, without Triton X-100): 1441.1 ± 186.5 kcps
Radius [2, 14]: 521.5 ± 30.9 nm
Concentration at which large colloidal aggregates form ([2]; aqueous conditions): ≥ 5 µM
Particle radius ([2]; concentrations ≥ 5 μM, without detergent): > 450 nm
Compound: COc1ccc(-c2nc(-c3cc(C(F)(F)F)cc(C(F)(F)F)c3)n(Cc3ccc(C(N)=O)cc3)c2-c2ccc(OC)cc2)cc1 [apoptozole]
Kd [3]: 140 nM
GI50 [4]: 250 nM
GI50 [5]: 220 nM
GI50 [6]: 130 nM
ATP-competitive binding (displacement of ATP-FAM probe) ([1]; concentrations up to 80 μM): no displacement of the ATP-FAM probe observed
Kd [7]: 210 nM

Binding interaction (SPR) [8]: no evidence of binding interactions
Binding interaction (SPR) [9]: no evidence of binding interactions
Compound: COc1ccc(-c2nc(-c3cc(C(F)(F)F)cc(C(F)(F)F)c3)n(Cc3ccc(C(=O)NCCOCCOCCNC(=O)CCC(=O)NCCOCCOCCNC(=O)CCCC[C@@H]4SC[C@@H]5NC(=O)N[C@@H]54)cc3)c2-c2ccc(OC)cc2)cc1 [compound 4, N^1-(2-(2-(2-(4-((2-(3,5-Bis(trifluoromethyl)phenyl)-4,5-bis(4-methoxyphenyl)-1H-imidazol-1-yl)methyl)benzamido)ethoxy)ethoxy)ethyl)-N^4-(2-(2-(2-(5-((3aS,4S,6aR)-2-oxohexahydro-1H-thieno[3,4-d]imidazol-4-yl)pentanamido)ethoxy)ethoxy)ethyl)succinamide]

Binding interaction (SPR) [10]: no binding interactions were observed
Compound: COc1ccc(-c2nc(-c3cc(C(F)(F)F)cc(C(F)(F)F)c3)n(Cc3ccc(C(=O)NCCOCCOCCNC(=O)CCC(=O)NCCOCCOCCN)cc3)c2-c2ccc(OC)cc2)cc1 [compound 6, N^1-(2-(2-(2-Aminoethoxy)ethoxy)ethyl)-N^4-(2-(2-(2-(4-((2-(3,5-bis(trifluoromethyl)phenyl)-4,5-bis(4-methoxyphenyl)-1H-imidazol-1-yl)methyl)benzamido)ethoxy)ethoxy)ethyl)succinamide]

pKD [11]: 5.95 ± 0.02
Kd [11]: 1100 nM
Compound: N^6-(6-Amino)hexyl-ATP-Cy5
